Measured values from patent US6965033B2, “Bisamidate phosphonate prodrugs” (Metabasis Therapeutics, Inc., priority 1999, dated 2005).
Where a name gives a salt, the structure may show the parent alone.

How the values were obtained:
rat liver FBPase = target: T1, rat liver FBPase (Rattus norvegicus, UniProt P19112); test: Inhibition of Rat Liver FBPase; assay type: biochemical; conditions: read-out: IC50 (rlFBPase)
T1 construct: made in house; host or cells: E. coli BL21
T1 sequence (P19112 2-363 limits assumed): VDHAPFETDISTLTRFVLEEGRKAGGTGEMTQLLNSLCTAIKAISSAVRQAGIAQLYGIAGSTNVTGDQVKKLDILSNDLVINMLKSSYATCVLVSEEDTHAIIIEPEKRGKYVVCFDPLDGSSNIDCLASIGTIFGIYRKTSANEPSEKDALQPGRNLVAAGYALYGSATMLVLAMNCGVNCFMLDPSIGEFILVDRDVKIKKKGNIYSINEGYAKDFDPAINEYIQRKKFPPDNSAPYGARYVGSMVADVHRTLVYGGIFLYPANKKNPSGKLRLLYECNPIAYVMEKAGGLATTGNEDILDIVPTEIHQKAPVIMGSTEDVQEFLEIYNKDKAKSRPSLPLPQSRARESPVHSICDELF
Method: E. coli strain BL21 transformed with a human liver FBPase-encoding plasmid was obtained from Dr. M. R. El-Maghrabi at the State University of New York at Stony Brook. The enzyme was typically purified from 10 liters of recombinant E. coli culture as described (M. Gidh-Jain et al., 1994, The Journal of Biological Chemistry 269, pp 27732-27738). Enzymatic activity was measured spectrophotometrically in reactions that coupled the formation of product (fructose 6-phosphate) to the reduction of dimethylthiazoldiphenyltetrazolium bromide (MTT) via NADP^+ and phenazine methosulfate (PMS), using phosphoglucose isomerase and glucose 6-phosphate dehydrogenase as the coupling enzymes. Reaction mixtures (200 μl) were made up in 96-well microtitre plates, and consisted of 50 mM Tris-HCl, pH 7.4, 100 mM KCl, 5 mM EGTA, 2 mM MgCl2, 0.2 mM NADP, 1 mg/ml BSA, 1 mM MTT, 0.6 mM PMS, 1 unit/ml phosphoglucose isomerase, 2 units/ml glucose 6-phosphate dehydrogenase, and 0.150 mM substrate (fructose 1,6-bisphosphate). Inhibitor concentrations were varied from 0.01 μM to 10 μM. Reactions were started by the addition of 0.002 units of pure hlFBPase, and were monitored for 7 minutes at 590 nm in a Molecular Devices Plate Reader (37° C.).
E. coli strain BL21 transformed with a rat liver FBPase-encoding plasmid was obtained from Dr. M. R. El-Maghrabi at the State University of New York at Stony Brook. Recombinant FBPase was purified as described (El-Maghrabi, M. R., and Pilkis, S. J. (1991) BioChem. Biophys. Res. Commun. 176, 137-144) The enzyme assay was identical to that described above for human liver FBPase.

human liver FBPase = target: T2, human liver FBPase (Homo sapiens, UniProt P09467); test: Inhibition of Human Liver FBPase; assay type: biochemical; conditions: read-out: IC50 (hlFBPase)
T2 construct: made in house; host or cells: E. coli BL21
T2 sequence (P09467 2-338 limits assumed): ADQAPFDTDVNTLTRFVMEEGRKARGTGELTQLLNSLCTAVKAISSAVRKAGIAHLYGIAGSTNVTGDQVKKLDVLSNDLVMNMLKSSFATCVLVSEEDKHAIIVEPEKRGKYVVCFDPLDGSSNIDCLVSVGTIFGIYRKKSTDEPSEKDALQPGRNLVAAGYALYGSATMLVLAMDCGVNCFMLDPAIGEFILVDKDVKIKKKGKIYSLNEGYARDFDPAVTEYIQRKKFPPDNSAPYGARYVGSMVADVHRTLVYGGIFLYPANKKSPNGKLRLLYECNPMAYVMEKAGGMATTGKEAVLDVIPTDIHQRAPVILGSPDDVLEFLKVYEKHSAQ
Method: […] […] Enzymatic activity was measured spectrophotometrically in reactions that coupled the formation of product (fructose 6-phosphate) to the reduction of dimethylthiazoldiphenyltetrazolium bromide (MTT) via NADP^+ and phenazine methosulfate (PMS), using phosphoglucose isomerase and glucose 6-phosphate dehydrogenase as the coupling enzymes. […] Inhibitor concentrations were varied from 0.01 μM to 10 μM. Reactions were started by the addition of 0.002 units of pure hlFBPase, and were monitored for 7 minutes at 590 nm in a Molecular Devices Plate Reader (37° C.).

Structure (SMILES)	IC50 (rat liver FBPase) [µM]	IC50 (human liver FBPase) [µM]	melting point
Nc1ncnc2c1ncn2[C@@H]1O[C@H](COP(=O)(O)O)[C@@H](O)[C@H]1O [AMP, reference compound]	20		
CC(C)Cc1sc(N)nc1-c1ccc(P(=O)(O)O)o1 [Compound 3.1, 2-amino-5-isobutyl-4-[2-(5-phosphono)furanyl]thiazole]	0.18		
CCOC(=O)c1sc(N)nc1-c1ccc(P(=O)(O)O)o1 [Compound 3.25, 2-Amino-5-ethoxycarbonyl-4-[2-(5-phosphono)furanyl]thiazole]	0.5		
Nc1nc(-c2cccc(P(=O)(O)O)n2)cs1 [Compound 3.67, 2-Amino-4-[2-(6-phosphono)pyridyl]thiazole hydrobromide]		2	
CC(C)Cc1[se]c(N)nc1-c1ccc(P(=O)(O)O)o1 [Compound 3.70, 2-Amino-5-isobutyl-4-[2-(5-phosphono)furanyl]selenazole]	0.15	0.04	
Nc1nc(-c2ccc(P(=O)(O)O)o2)c(-c2cccs2)s1 [Compound 6.3]	0.5		
CCOC(=O)c1oc(N)nc1-c1ccc(P(=O)(O)O)o1 [Compound 10.27, 2-Amino-5-ethoxycarbonyl-4-[2-(5-phosphono)furanyl]oxazole]	2.9	0.038	
CCCSc1oc(N)nc1-c1ccc(P(=O)(O)O)o1 [Compound 10.43, 2-Amino-5-propylthio-4-[2-(5-phosphono)furanyl]oxazole]	0.8	0.07	
Nc1ccc(Br)c(-c2ccc(P(=O)(O)O)o2)n1 [Compound 15.2, 6-Amino-3-bromo-2-[2-(5-phosphono)furanyl]pyridine]	1.3		
CCc1cc(CC)c(-c2ccc(P(=O)(O)O)o2)nc1N [Compound 15.4, 2-amino-3,5-diethyl-6-[2-(5-phosphono)furanyl]pyridine]	4.1		217 to 218 °C
O=P(O)(O)c1ccc(-c2ccccn2)o1 [Compound 15.6, 2-[2-(5-Phosphono)furanyl]pyridine]	7		
CCCc1ccc(N)nc1-c1ccc(P(=O)(O)O)o1 [Compound 15.14, 6-Amino-3-propyl-2-[2-(5-phosphono)furanyl]pyridine]	0.68	0.032	
Nc1ccc(C2CC2)c(-c2ccc(P(=O)(O)O)o2)n1 [Compound 15.20, 2-Amino-5-cyclopropyl-6-[2-(5-phosphono)furanyl]pyridine]	0.6	0.04	
CSc1nccnc1-c1ccc(P(=O)(O)O)o1 [Compound 17.6, 3-Methylthio-2-[2-(5-phosphono)furanyl]pyrazine]		0.62	
Nc1nc(-c2ccccc2)nc(-c2ccc(P(=O)(O)O)o2)n1 [Compound 17.11, 2-Amino-4-phenyl-6-[2-(5-phosphono)furanyl]triazine]		0.78	
CCc1sc(N)nc1C(=O)OCP(=O)(O)O [Compound 18.3, 2-amino-5-ethyl-4-phosphonomethoxycarbonylthiazole]	0.49	0.05	
Nc1nc(C(=O)NCP(=O)(O)O)c(Br)s1 [Compound 18.11, 2-Amino-5-bromo-4-[(N-phosphonomethyl)carbamoyl]thiazole]		0.33	
CC(C)c1sc(N)nc1C(=O)OCP(=O)(O)O [Compound 18.20, 2-Amino-5-isopropyl-4-phosphonomethoxycarbonylthiazole]	0.28	0.039	
Nc1nc(NC(=O)CP(=O)(O)O)ccc1Br [Compound 18.25, 2-Amino-3-bromo-6-[(N-phosphonoacetyl)amino]pyridine]		2	

Structure (SMILES)	IC50 (rat liver FBPase) [µM]	IC50 (human liver FBPase) [µM]	melting point
CC(C)Cc1cn(C)nc1-c1ccc(P(=O)(O)O)o1 [Compound 19.2, 1-methyl-4-isobutyl-3-[2-(5-phosphono)furanyl]pyrazole]		0.4	
CSc1sc(N)nc1CCC(F)(F)P(=O)(O)O [Compound 22.2, 2-Amino-5-methylthio-4-[1-(3-phosphono-3,3-difluoro)propyl]thiazole]		2.8	
Cc1c(Cl)c(OCP(=O)(O)O)c2nc(N)sc2c1Cl [Compound 29.5, 2-Amino-5,7-dichloro-6-methyl-4-phosphonomethoxybenzothiazole]			> 230 °C (dec.)
Nc1nc2c(OCP(=O)(O)O)cc(C(=O)O)cc2s1 [Compound 29.6, 2-Amino-4-phosphonomethoxy-6-carboxybenzothiazole]			> 230 °C (dec.)
Nc1nc2c(OCP(=O)(O)O)cc(Cl)cc2s1 [Compound 31.3, 2-Amino-6-chloro-4-phosphonomethoxybenzothiazole]			> 250 °C (dec.)
Nc1nc2c(OCP(=O)(O)O)cc(Cl)c(Cl)c2s1 [Compound 31.4, 2-Amino-6,7-dichloro-4-phosphonomethoxybenzothiazole]			> 250 °C (dec.)
Cc1cc(OCP(=O)(O)O)c2nc(N)sc2c1 [Compound 32.2, 2-Amino-6-methyl-4-phosphonomethoxybenzothiazole]			> 250 °C (dec.)
N#Cc1ccc(OCP(=O)(O)O)c2nc(N)sc12 [Compound 32.3, 2-Amino-7-cyano-4-phosphonomethoxybenzothiazole]			> 250 °C (dec.)
CCc1c(SC#N)cc(OCP(=O)(O)O)c2nc(N)sc12 [Compound 34.1, 2-amino-7-ethyl-6-thiocyano-4-phosphonomethoxybenzothiazole]	0.16	0.022	
CCc1cc(OCP(=O)(O)O)c2nc(N)sc2c1F [Compound 34.5, 2-Amino-6-ethyl-7-fluoro-4-phosphonomethoxybenzothiazole]			> 250 °C (dec.)
Cc1c(Cl)cc(OCP(=O)(O)O)c2nc(Cl)sc12 [Compound 37.2, 2-Chloro-4-phosphonomethoxy-6-chloro-7-methyl benzothiazole]			> 250 °C (dec.)
CCCCCCc1c(C)cc(OCP(=O)(O)O)c2nc(N)sc12 [Compound 40.2, 2-Amino-6-methyl-7-(n-hexyl)-4-phosphonomethoxybenzothiazole]			> 250 °C (dec.)
CCc1cc(OCP(=O)(O)O)c2nc(N)sc2c1 [Compound 42.1, 2-Amino-6-ethyl-4-phosphonomethoxybenzothiazole]			> 220 °C (dec.)
CCCOc1c(SC#N)cc(OCP(=O)(O)O)c2nc(N)sc12 [Compound 44.1, 2-Amino-7-propyloxy-6-thiocyano-4-phosphonomethoxy benzothiazole]			> 220 °C (dec.)
COc1cc(OCP(=O)(O)O)c2nc(N)sc2c1 [Compound 45.1, 2-Amino-6-methoxy-4-phosphonomethoxybenzothiazole]			> 230 °C (dec.)
Cc1cc(OCP(=O)(O)O)c2nc(N)sc2c1Br [Compound 47.1, 2-Amino-7-bromo-6-methyl-4-phosphonomethoxybenzothiazole]			> 250 °C (dec.)
Cc1cc(OCP(=O)(O)O)c2nc(N)sc2c1Cl [Compound 48.2, 2-Amino-7-chloro-6-methyl-4-phosphonomethoxybenzothiazole]			> 250 °C (dec.)
CCc1cc(F)c(N)c2nc(-c3ccc(P(=O)(O)O)o3)n(CC(C)C)c12 [Compound A, 4-Amino-5-fluoro-7-ethyl-1-isobutyl-2-(2-phosphono-5-furanyl)benzimidazole]	0.55		
Nc1c(F)ccc2c1nc(-c1ccc(P(=O)(O)O)o1)n2CC1CC1 [Compound B, 4-Amino-5-fluoro-1-cyclopropylmethyl-2-(2-phosphono-5-furanyl)benzimidazole]	2.1		
